Measured values published in US20220152044A1, “TREATMENT OF INFLAMMATORY DISEASES OF THE CENTRAL NERVOUS SYSTEM” (PALMAYA PTY LTD, priority 2019, published 2022).
“And” between values parts separate entries of the source, which are not always exact repeats. Equal entries are not always repeated. “Also recorded” adds a separate entry of the source.

Experiments:
anxiety [1] = experiment: Anxiety states monitored in twenty one patients after flumazenil; format: in vivo, human
From the text: Twenty one patients were monitored after treatment with flumazenil for the following states: (i) calmness, (ii) tenseness, (iii) relaxation, (iv) contentedness, (v) worry; and (vi) upset.

[2] = Water bath release rate testing of flumazenil implant; format: physicochemical; conditions: based on water bath release rate testing
Method: (§1) The patient was then treated with a subcutaneous implant delivering an estimated 60-80 micrograms per hour of flumazenil (based on water bath release rate testing). The implant was expected to last 8-10 weeks. This prevented the migraines for about 9-10weeks. In the week before the implant was inserted, the patient's blood flumazenil level was noted to be 0.5 ng/ml. The usual expected level for 160 microgram an hour infusions was in the order of 2-3 ng per ml and 1-1.5 ng for 80 microgram per hour infusions.

premenstrual tension = experiment: Premenstrual anxiety and symptoms in women treated with flumazenil; format: in vivo, human; conditions: women complaining of premenstrual tension
[3] = Blood / plasma flumazenil level in patients; format: in vivo, human
Method: (§2) In a severe patient population, ondansetron may be given every 6-8 hours to assist in reducing the nausea and associated anxiety symptoms.
as §1
(§3) This finding that the migraines were stopped for a nine week period of time was amazing to the patient as they had suffered migraines for typically three weeks out of four for all of the years […]. At the end of week 8 on the first implant their blood flumazenil level was recorded as 0.5 ng per ml, which is considered a low level. Within a week another migraine started and the patient presented to the clinic for treatment.
(§4) This next implant was also delivering an estimated 60-80 micrograms of flumazenil per hour. Evidence of ovulation was confirmed by routine elevation of progesterone during the luteal phase of one of the two cycles during the time of this second implant. Again no migraines occurred during an 8-9 week time of the second implant. Blood levels of flumazenil at 1.2 and 1.3 ng/ml were recorded during the time of the second implant. After 9-10 weeks the patient, presented to a teaching hospital on the weekend with another migraine. They were treated with all the modern treatments for migraines without resolution of the migraine.

PTSD = PTSD patients treated with flumazenil and/or naltrexone; format: in vivo, human; conditions: infusions and implants
From the text: Post Trauma Stress Disorder (PTSD), causes dysregulation of anxiety control that may damage the GABAA system and present as hypervigilance, sleep disturbance, anxiety, gastrointestinal (GIT) or bladder symptoms. We have been using flumazenil for more than 8 years to treat patients presenting complex. The infusions and implants give relief to the anxiety, sleep disturbance and the GIT symptoms as well as urinary symptoms in many well established PTSD patients.
Sleep remained normal following this. The profound recovery of sleep in patients with PTSD using flumazenil and naltrexone by continuous delivery has not previously been described.

amphetamine use = experiment: Amphetamine / methamphetamine craving and withdrawal; format: in vivo, human; conditions: methamphetamine patients, flumazenil infusions at 160 μg/hour
Method: In those patients that return 2-3 weeks with extreme anxiety and a desire to return to amphetamine use, the commencement of flumazenil infusions followed by a flumazenil implant that sustains a plasma concentration of flumazenil at 0.5-2 ng/ml or more decreases the cravings, including a decrease in the desire for amphetamines and allows reduction f irritability and aggression.

psychosis = experiment: Drug or anxiety induced episodes of psychosis at detoxification; format: in vivo, human; conditions: patients with history of psychosis after ceasing cannabis, amphetamines and alcohol; sustained delivery
cannabis withdrawal = experiment: Withdrawal from cannabis with high THC concentrations; format: in vivo, human; conditions: flumazenil 160 μg/hour
From the text: Cannabis use has changed in recent years with a significant cohort describing high tetrahydrocannabinol (THC) concentrations in potent strains which are cultivated for their high THC content. In the patient group using these high concentrations of THC, we have noted that a group of patients give a clear cut history of extreme nausea, vomiting, anxiety changing to serious paranoid thoughts and delusions followed by psychosis over the first 3-5 days of ceasing drug use.
as §2
Our results indicated a clear reduction in anxiety, and paranoid symptoms, allowing patients who otherwise would be unable to cope with the symptoms, to cease cannabis use.

migraine = experiment: Treatment of migraine in a person with flumazenil infusion and subcutaneous implants; format: in vivo, human
Method: The patient recently presented to our clinic, and was treated with flumazenil given subcutaneously at a rate of 160 micrograms per hour, delivered by a spring driven pump for a continuous period of time. The time that the migraines regularly occurred was the week prior to menstruation.
as §1, §3
A further subcutaneous implant was inserted and within four hours all symptoms from the migraine had settled. This was most unusual and unexpected as the symptoms following migraines usually persisted many days for this patient.
as §4
A few days later a third implant was inserted. It again was surprising that all symptoms relating to the migraine settled within four hours.

anxiety [4] = experiment: Anxiety during and after medication delivery; format: in vivo, human; conditions: flumazenil infusions; for many patients continued for very long periods afterwards
From the text: These observations appeared to indicate a cure or recovery of the patients underlying disease rather than relief of symptoms only. These observations included patients treated in five other years as well as the group treated in 2016-2017.

methamphetamine use = experiment: Survey of 109 patients, methamphetamine use after flumazenil infusion; format: in vivo, human
From the text: In a survey of 109 patients treated with flumazenil 4.9% were using methamphetamines daily and this fell to 0.9% following treatment with the flumazenil infusion. Abstinence from methamphetamine use increased from 67% before flumazenil treatment to 87% following treatment. This means that 33% of patients using methamphetamines fell to 13% following treatment with flumazenil.

craving for nicotine = experiment: Nicotine craving and use in patients; format: in vivo, human; conditions: flumazenil by infusion or nasally/sublingually 50 to 200 micrograms per dose

CCOC(=O)c1ncn2c1CN(C)C(=O)c1cc(F)ccc1-2 [flumazenil]
levels of relaxation following treatment (anxiety [1]; twenty one patients): statically significant increase | states of calmness, tenseness, relaxation, contentedness, worry and upset (anxiety [1]; twenty one patients after treatment): improved | estimated delivery rate of flumazenil from subcutaneous implant [2]: 60-80 micrograms per hour | premenstrual symptoms (premenstrual tension): reduction in premenstrual symptoms | usual expected blood flumazenil level ([3]; 80 microgram per hour infusions): 1 to 1.5 ng | usual expected blood flumazenil level ([3]; 160 microgram an hour infusions): 2-3 ng per ml | concentration at 8 weeks ([3]; human, blood, subcutaneous, migraine patient, end of week 8 on the first implant): 0.5 ng/mL | blood levels of flumazenil ([3]; migraine patient, during the time of the second implant): 1.2 ng/mL and 1.3 ng/mL | blood flumazenil level ([3]; migraine patient, in the week before the implant was inserted): 0.5 ng/mL | PTSD symptoms (anxiety, sleep disturbance, GIT and urinary symptoms) (PTSD): give relief; also recorded: significant improvement | severe withdrawal symptoms including psychosis or extreme anxiety (amphetamine use): prevent these symptoms | onset of psychosis with detoxification (psychosis): prevents the onset of psychosis | nausea, vomiting, anxiety, paranoid thoughts, delusions, psychosis on ceasing high-THC cannabis (cannabis withdrawal): controls or reduces the presence of these symptoms | time until all symptoms from the migraine had settled (migraine; after insertion of the further (second) subcutaneous implant): four | time until all symptoms relating to the migraine settled (migraine; after insertion of the third implant): four | time without migraines (migraine; second implant, estimated 60-80 micrograms flumazenil per hour): 8-9 week | occurrence of migraine at the expected time (week prior to menstruation) (migraine; subcutaneous infusion 160 micrograms per hour by spring driven pump): did not occur | anxiety during the time of medication delivery (anxiety [4]): reduction of anxiety | patients using methamphetamines following treatment (methamphetamine use; 33% before treatment): 13% | patients using methamphetamines daily following treatment (methamphetamine use; 109 patients, flumazenil infusion, 4.9% before): 0.9% | abstinence from methamphetamine use following treatment (methamphetamine use; 109 patients, 67% before flumazenil treatment): 87% | craving for and use of nicotine (craving for nicotine): reduced craving and use
